Data published in paper PMC7933985 (The Journal of General Physiology, 2021).
Positions count from the first letter of the chain named. Read-outs that look alike come from different tables or passages of the source.

Legend:
DEGT-1d = assay: Two-electrode voltage clamp of oocytes coexpressing MEC-2 and DEGT-1d; assay type: cell-based, C. elegans; conditions: for ΔIdrug, change in current compared with uninjected oocytes: −85 mV, coexpressed with MEC-2; for effect on DEGT-1d current: 30 µM
UNC-8d [1] = biological target: T1, UNC-8d (Caenorhabditis elegans, UniProt Q21974, G387E); assay: Two-electrode voltage clamp of oocytes coexpressing MEC-2 and UNC-8d; assay type: cell-based, C. elegans; conditions: for effect on UNC-8d current: 30 µM; for IC50: control saline (divalent-containing solution)
T1 sequence (Q21974 1-737 isoform Q21974-4 G347E): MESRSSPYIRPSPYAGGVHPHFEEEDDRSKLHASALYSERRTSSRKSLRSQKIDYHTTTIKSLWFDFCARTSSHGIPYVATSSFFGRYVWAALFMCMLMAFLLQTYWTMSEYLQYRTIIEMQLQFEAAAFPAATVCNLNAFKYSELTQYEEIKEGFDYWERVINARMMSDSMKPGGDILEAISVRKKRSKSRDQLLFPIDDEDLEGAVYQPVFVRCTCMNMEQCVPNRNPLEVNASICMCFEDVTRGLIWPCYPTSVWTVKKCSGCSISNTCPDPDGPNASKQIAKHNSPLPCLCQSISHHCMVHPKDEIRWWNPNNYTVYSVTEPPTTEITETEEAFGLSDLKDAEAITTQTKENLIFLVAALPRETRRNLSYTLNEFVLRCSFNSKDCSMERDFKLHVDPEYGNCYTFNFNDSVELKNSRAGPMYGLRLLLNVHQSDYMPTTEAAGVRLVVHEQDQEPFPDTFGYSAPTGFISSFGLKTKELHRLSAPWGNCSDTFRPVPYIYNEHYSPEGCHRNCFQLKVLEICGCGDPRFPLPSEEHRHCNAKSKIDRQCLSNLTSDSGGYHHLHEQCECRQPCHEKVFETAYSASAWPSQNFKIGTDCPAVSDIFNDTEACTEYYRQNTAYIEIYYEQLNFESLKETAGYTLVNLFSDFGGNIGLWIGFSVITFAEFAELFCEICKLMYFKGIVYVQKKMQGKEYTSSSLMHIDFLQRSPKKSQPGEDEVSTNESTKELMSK

MEC-2 alone = biological target: T2, MEC-2 alone (Caenorhabditis elegans, UniProt Q27433); assay: Two-electrode voltage clamp of oocytes expressing MEC-2 alone; assay type: cell-based, C. elegans; conditions: 300 µM amiloride, −85 mV
T2 sequence (Q27433 1-481): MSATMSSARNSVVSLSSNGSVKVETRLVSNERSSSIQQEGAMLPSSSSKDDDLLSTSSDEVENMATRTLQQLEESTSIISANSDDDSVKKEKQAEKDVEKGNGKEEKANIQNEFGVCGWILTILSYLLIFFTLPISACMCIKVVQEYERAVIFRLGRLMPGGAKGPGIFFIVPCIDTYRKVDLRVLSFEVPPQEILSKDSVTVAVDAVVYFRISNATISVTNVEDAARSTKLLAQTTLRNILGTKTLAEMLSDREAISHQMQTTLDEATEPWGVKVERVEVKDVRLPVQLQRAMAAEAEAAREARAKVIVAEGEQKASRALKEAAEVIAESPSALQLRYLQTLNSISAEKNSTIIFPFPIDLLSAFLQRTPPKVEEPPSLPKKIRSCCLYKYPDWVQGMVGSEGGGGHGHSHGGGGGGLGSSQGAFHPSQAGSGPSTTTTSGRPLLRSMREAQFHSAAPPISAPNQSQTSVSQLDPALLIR

MEC-4d = biological target: T3, MEC-4d (Caenorhabditis elegans, UniProt P24612, A713T); assay: Two-electrode voltage clamp of oocytes coexpressing MEC-2 and MEC-4d; assay type: cell-based, C. elegans; conditions: for effect on MEC-4d current: 30 µM
T3 sequence (P24612 1-768 A713T): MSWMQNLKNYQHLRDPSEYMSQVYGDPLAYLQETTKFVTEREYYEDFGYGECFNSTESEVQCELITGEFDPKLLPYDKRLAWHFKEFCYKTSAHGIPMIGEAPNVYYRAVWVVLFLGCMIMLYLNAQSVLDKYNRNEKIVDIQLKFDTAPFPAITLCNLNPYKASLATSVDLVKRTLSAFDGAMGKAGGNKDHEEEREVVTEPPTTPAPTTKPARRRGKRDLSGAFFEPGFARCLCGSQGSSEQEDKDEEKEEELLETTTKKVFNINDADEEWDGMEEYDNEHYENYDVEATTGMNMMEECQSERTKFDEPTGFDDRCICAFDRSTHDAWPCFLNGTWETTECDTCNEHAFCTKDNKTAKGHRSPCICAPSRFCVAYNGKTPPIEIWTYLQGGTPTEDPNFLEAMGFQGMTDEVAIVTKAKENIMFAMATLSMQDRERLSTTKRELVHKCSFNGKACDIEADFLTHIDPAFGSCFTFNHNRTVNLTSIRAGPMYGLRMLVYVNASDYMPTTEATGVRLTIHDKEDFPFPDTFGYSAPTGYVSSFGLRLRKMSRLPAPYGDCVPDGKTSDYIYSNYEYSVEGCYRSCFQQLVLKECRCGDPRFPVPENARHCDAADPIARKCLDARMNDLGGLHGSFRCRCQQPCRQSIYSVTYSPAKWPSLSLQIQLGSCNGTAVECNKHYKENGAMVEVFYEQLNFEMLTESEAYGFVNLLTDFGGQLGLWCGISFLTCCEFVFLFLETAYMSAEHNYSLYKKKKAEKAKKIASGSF

DEGT-1d alone = assay: Two-electrode voltage clamp of oocytes expressing DEGT-1d alone; assay type: cell-based, C. elegans; conditions: 300 µM amiloride, −85 mV, DEGT-1 alone without MEC-2
MEC-4d(E704K) = biological target: T4, MEC-4d(E704K) (Caenorhabditis elegans, UniProt P24612, A713T/E704K); assay: cell-based; design: species or system C. elegans; conditions: for drug-induced change in current (Idrug) compared with absence of drug: 700 µM drug, −85 mV
T4 sequence (P24612 1-768 E704K/A713T): T3 sequence (P24612 1-768 A713T) with E704K

UNC-8d [2] = biological target: T1, UNC-8d; conditions: −100 mV, ref Miller-Fleming et al., 2016, cited from earlier work
uninjected oocytes = assay: Two-electrode voltage clamp of uninjected; assay type: cell-based, Xenopus laevis; conditions: 30 µM
rASIC1a = conditions: allosteric effect; ref Lynagh et al., 2017; cited from earlier work

Compound: N=C(N)NC(=O)c1nc(Cl)c(N)nc1N [Amiloride, amiloride]
- ΔIdrug, change in current compared with uninjected oocytes (DEGT-1d; 100 µM drug): 0.111 µA
- ΔIdrug, change in current compared with uninjected oocytes (DEGT-1d; 300 µM drug): 0.0623 µA
- effect on UNC-8d current (UNC-8d [1]): inhibited
- ΔIdrug, change in current compared with uninjected oocytes (MEC-2 alone): −0.0067 µA
- effect on MEC-4d current (MEC-4d): inhibited
- ΔIdrug, change in current compared with uninjected oocytes (DEGT-1d alone): 0.0288 µA

Compound: CC(=O)Oc1ccccc1C(=O)O [Aspirin, aspirin]
- EC50 (MEC-4d(E704K)): 179 ± 56 µM
- drug-induced change in current (Idrug) compared with absence of drug (MEC-4d(E704K)): 6.53 µA
- EC50 (MEC-4d): 79.9 ± 3.7 µM
- voltage dependence of potentiation (EC50 vs voltage) (MEC-4d): Neither drug showed evidence of voltage dependence

Compound: N=C(N)c1ccccc1 [Benzamidine, benzamidine]
- effect on UNC-8d current (UNC-8d [1]): inhibited

Compound: NC(=NCc1ccccc1)NC(=O)c1nc(Cl)c(N)nc1N [Benzamil, benzamil]
- IC50 (UNC-8d [2]; divalent-containing solution): 47 µM
- IC50 (UNC-8d [2]; divalent-free solution): 119 µM
- effect on UNC-8d current (UNC-8d [1]): inhibited
- IC50 (UNC-8d [1]; IC50, −60 mV): 14.8 ± 1.6 µM
- IC50 (UNC-8d [1]; IC50, −100 mV): 15.1 µM
- voltage dependence of block (UNC-8d [1]; voltages between −100 and −20 mV): not voltage-dependent
- effect on MEC-4d current (MEC-4d): inhibited

Compound: O=C(O)Cc1ccccc1Nc1c(Cl)cccc1Cl [Diclofenac, diclofenac]
- effect on UNC-8d current (UNC-8d [1]): partially inhibit

Compound: CCN(c1nc(N)c(C(=O)NC(=N)N)nc1Cl)C(C)C [EIPA, 5-(N-ethyl-N-isopropyl)amiloride]
- effect on DEGT-1d current (DEGT-1d): no detectable effect
- effect on UNC-8d current (UNC-8d [1]): inhibited
- effect on current in control (uninjected) oocytes (uninjected oocytes): no detectable effect
- IC50 (MEC-4d): 3.06 ± 0.6 µM
- voltage dependence of apparent affinity (block) (MEC-4d): insensitive to voltage
- effect on MEC-4d current (MEC-4d): inhibited

Compound: CC(C(=O)O)c1ccc(-c2ccccc2)c(F)c1 (stereo not shown) [Flurbiprofen, flurbiprofen]
- effect on DEGT-1d current (DEGT-1d): partially inhibit
- effect on UNC-8d current (UNC-8d [1]): partially inhibit

Compound: CC(C)Cc1ccc(C(C)C(=O)O)cc1 (stereo not shown) [Ibuprofen, ibuprofen]
- effect on DEGT-1d current (DEGT-1d): modestly inhibits
- ΔIdrug, change in current compared with uninjected oocytes (DEGT-1d; 100 µM drug): 0.19 µA
- ΔIdrug, change in current compared with uninjected oocytes (DEGT-1d; 300 µM drug): 0.322 µA
- effect on UNC-8d current (UNC-8d [1]): modestly inhibits
- effect on rASIC1a (rASIC1a): inhibited
- drug-induced change in current (Idrug) compared with absence of drug (MEC-4d(E704K)): 10.7 µA
- effect on current in control (uninjected) oocytes (uninjected oocytes): little if any effect
- voltage dependence of potentiation (EC50 vs voltage) (MEC-4d): Neither drug showed evidence of voltage dependence
- effect on MEC-4d current (MEC-4d): seems to potentiate

Compound: NC(=Nc1ccccc1)NC(=O)c1nc(Cl)c(N)nc1N [Phenamil, phenamil]
- effect on UNC-8d current (UNC-8d [1]): inhibited
- effect on MEC-4d current (MEC-4d): inhibited

Compound: CC(C)Cc1ccc([C@H](C)C(=O)O)cc1 [S-Ibu, S-ibuprofen]
- difference in drug-sensitive current compared with uninjected oocytes (ΔIdrug) (MEC-4d; 30 µM ibuprofen isomer): 4.7 µA

Compound: O=C(O)c1ccccc1O [Salicylic acid, salicylic acid]
- effect on DEGT-1d current (DEGT-1d): partially inhibit
